Data: ChEMBL document CHEMBL1146207, “Gypsophin: a novel alpha-glucosidase inhibitory cyclic peptide from the roots of Gypsophila oldhamiana” (Bioorg Med Chem Lett, 2007)

Target: Sucrase-isomaltase, intestinal (Homo sapiens, UniProt P14410)
Assay: Inhibition of alpha-glucosidase by enzyme inhibition assay

Sucrase-isomaltase, intestinal, sequence (P14410 2-1007 limits assumed): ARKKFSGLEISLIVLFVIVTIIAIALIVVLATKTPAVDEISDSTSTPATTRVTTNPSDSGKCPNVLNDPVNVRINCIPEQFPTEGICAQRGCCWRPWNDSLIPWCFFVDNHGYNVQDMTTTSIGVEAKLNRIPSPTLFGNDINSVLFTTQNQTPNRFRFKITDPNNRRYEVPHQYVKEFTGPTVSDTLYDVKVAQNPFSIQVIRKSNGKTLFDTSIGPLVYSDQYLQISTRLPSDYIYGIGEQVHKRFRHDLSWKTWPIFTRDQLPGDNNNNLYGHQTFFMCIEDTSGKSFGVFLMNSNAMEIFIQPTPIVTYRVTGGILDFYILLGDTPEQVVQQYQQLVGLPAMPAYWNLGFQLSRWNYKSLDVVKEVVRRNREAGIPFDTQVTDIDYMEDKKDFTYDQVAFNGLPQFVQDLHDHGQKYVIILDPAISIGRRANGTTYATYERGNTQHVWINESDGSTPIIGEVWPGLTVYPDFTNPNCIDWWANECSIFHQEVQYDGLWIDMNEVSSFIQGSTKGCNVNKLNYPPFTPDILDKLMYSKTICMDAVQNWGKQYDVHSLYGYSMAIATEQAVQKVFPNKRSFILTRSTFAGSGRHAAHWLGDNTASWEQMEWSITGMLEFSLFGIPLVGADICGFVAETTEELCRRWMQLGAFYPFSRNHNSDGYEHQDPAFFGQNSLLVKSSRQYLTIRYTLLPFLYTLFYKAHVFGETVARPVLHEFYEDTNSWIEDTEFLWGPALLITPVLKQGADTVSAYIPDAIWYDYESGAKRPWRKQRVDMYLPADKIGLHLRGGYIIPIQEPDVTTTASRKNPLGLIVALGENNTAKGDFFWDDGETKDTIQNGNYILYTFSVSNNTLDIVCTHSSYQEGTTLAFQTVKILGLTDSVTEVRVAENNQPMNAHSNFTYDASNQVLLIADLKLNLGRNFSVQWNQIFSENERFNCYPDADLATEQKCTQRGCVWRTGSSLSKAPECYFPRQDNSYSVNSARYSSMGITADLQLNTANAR
Sucrase-isomaltase, intestinal, sequence (P14410 1008-1827 limits assumed): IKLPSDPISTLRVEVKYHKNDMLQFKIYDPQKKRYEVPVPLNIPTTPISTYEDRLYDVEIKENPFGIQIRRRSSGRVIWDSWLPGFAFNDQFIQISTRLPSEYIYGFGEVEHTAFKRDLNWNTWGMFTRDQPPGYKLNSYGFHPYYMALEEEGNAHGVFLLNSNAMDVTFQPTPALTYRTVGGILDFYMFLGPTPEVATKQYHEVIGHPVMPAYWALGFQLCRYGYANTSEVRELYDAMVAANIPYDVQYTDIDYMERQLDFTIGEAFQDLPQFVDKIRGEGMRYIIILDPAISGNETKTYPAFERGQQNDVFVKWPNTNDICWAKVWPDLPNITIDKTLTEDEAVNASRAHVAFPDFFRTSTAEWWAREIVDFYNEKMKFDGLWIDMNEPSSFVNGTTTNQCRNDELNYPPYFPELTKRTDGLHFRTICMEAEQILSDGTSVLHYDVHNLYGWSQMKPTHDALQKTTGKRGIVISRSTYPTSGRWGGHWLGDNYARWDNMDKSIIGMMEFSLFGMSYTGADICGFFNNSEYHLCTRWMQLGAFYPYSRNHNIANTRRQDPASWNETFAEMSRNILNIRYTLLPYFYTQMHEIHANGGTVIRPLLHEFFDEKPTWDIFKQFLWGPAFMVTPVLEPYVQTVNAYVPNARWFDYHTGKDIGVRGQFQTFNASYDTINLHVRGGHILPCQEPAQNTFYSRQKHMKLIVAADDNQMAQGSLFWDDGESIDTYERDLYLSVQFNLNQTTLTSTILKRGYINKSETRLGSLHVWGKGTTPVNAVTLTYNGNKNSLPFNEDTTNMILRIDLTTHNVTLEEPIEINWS

IC50: 305 µM
Compound: CC[C@H](C)[C@@H]1NC(=O)[C@H](Cc2ccccc2)N2C(=O)C[C@H](NC(=O)[C@H](Cc3ccccc3)NC(=O)CNC(=O)[C@@H]3CCCN3C(=O)[C@H](CC(C)C)NC1=O)C2=O [GYPSOPHIN]
